Laboratory results published in ChEMBL document CHEMBL6120942 (J Med Chem, 2024).
In brackets after ≈: the same amount, converted by molar mass. Activity calls are given as the source filed them. The rule behind the calls is not given here.

Experiments:
[1] = Half life in male Beagle dog at 1 mg/kg, iv measured upto 24 hrs by LC-MS/MS analysis; format: ADME, organism-based, Canis lupus familiaris; details: in vivo
[2] = Half life in male Wistar Han rat at 1 mg/kg, iv measured upto 24 hrs by LC-MS/MS analysis; format: ADME, organism-based; details: in vivo
[3] = Unbound clearance in male Wistar Han rat at 1 mg/kg, po or 1 mg/kg, iv measured upto 24 hrs by LC-MS/MS analysis; format: ADME, organism-based; details: in vivo
[4] = Volume of distribution at steady state in male Beagle dog at 1 mg/kg, po or 1 mg/kg, iv measured upto 24 hrs by LC-MS/MS analysis; format: ADME, organism-based, Canis lupus familiaris; details: in vivo
[5] = Oral bioavailability in male Wistar Han rat at 1 mg/kg measured upto 24 hrs by LC-MS/MS analysis; format: ADME, organism-based; details: in vivo
[6] = Unbound clearance in male Beagle dog at 1 mg/kg, po or 1 mg/kg, iv measured upto 24 hrs by LC-MS/MS analysis; format: ADME, organism-based, Canis lupus familiaris; details: in vivo
[7] = Volume of distribution at steady state in male Wistar Han rat at 1 mg/kg, po or 1 mg/kg, iv measured upto 24 hrs by LC-MS/MS analysis; format: ADME, organism-based; details: in vivo
[8] = Oral bioavailability in male Beagle dog at 1 mg/kg measured upto 24 hrs by LC-MS/MS analysis; format: ADME, organism-based, Canis lupus familiaris; details: in vivo
[9] = in vitro; details: dog, MDCK-MDR1, permeability
Description: (§1) Permeability across apical to basolateral side in dog MDCK-MDR1 cells measured for 60 mins by LC-MS/MS analysis

[10] = physchem; details: octanol/water, pH 7.4, logD
Description: (§2) Distribution coefficient, logD of compound at pH 7.4 by HPLC analysis

[11] = target: Integrin alpha-V/beta-6 (Homo sapiens, UniProt P06756+P18564); assay: Binding affinity to Integrin alphaVbeta6 (unknown origin); format: protein-complex assay
Chain of Integrin alpha-V/beta-6 (P06756 31-889 limits assumed): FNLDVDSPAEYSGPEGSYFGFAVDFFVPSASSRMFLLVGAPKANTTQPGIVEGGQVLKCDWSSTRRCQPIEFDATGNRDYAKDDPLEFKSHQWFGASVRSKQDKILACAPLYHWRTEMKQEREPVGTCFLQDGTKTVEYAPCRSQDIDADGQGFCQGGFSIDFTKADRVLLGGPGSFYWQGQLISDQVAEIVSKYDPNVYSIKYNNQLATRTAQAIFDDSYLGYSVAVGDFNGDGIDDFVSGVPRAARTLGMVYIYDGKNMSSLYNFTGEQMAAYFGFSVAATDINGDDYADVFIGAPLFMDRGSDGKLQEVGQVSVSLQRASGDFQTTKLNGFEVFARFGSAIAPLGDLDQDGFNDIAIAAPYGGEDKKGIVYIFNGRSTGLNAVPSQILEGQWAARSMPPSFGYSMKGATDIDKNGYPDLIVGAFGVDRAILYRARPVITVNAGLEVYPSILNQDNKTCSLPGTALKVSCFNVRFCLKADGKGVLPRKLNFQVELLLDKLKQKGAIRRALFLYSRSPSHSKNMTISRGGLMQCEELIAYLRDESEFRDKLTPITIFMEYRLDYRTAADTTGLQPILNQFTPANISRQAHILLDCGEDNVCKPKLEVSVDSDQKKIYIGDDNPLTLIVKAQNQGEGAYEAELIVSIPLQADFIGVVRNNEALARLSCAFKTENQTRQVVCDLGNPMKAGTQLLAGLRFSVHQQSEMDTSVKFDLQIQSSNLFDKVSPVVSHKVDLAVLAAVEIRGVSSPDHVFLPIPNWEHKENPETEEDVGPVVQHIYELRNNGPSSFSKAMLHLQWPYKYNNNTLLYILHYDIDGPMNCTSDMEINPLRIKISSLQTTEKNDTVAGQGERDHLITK
Chain of Integrin alpha-V/beta-6 (P06756 891-1048 limits assumed): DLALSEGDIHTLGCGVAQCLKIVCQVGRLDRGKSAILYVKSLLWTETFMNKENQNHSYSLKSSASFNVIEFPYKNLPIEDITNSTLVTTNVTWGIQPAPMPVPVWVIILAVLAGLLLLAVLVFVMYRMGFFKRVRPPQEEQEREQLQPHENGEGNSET
Chain of Integrin alpha-V/beta-6 (P18564 22-788 limits assumed): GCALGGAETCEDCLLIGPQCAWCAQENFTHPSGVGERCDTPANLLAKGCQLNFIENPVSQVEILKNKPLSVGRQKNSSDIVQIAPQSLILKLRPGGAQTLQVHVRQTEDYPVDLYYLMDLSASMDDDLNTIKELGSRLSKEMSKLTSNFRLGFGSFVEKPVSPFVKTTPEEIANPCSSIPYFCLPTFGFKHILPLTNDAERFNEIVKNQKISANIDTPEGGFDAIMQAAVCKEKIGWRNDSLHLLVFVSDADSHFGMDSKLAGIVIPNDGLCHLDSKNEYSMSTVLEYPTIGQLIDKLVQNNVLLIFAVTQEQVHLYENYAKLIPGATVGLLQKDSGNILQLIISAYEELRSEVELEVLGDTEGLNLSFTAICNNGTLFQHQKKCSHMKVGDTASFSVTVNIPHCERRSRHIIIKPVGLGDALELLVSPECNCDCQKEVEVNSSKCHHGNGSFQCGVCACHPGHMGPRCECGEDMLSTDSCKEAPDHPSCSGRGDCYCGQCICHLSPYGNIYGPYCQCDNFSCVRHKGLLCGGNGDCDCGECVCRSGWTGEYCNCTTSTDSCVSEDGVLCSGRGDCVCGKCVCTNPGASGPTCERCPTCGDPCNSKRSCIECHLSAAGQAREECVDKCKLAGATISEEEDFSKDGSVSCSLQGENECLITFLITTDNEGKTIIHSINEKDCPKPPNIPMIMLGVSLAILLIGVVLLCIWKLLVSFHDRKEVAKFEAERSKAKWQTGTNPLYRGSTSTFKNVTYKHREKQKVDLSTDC

[12] = Permeability across apical to basolateral side in MDCK cells; format: ADME, cell-based, Canis lupus familiaris; details: dog, read-out: permeability
[13] = AUC in rat at 2 mg/kg, po; format: ADME, organism-based; details: in vivo
[14] = octanol/water, pH 7.4
Description: as §2

[15] = dog, mdck-mdr1, 1 h
Description: as §1

[16] = target: T1, Voltage-gated inwardly rectifying potassium channel KCNH2 (Homo sapiens, UniProt Q12809); assay: Inhibition of hERG by Qpatch clamp assay; format: toxicity
T1 sequence (Q12809 whole entry): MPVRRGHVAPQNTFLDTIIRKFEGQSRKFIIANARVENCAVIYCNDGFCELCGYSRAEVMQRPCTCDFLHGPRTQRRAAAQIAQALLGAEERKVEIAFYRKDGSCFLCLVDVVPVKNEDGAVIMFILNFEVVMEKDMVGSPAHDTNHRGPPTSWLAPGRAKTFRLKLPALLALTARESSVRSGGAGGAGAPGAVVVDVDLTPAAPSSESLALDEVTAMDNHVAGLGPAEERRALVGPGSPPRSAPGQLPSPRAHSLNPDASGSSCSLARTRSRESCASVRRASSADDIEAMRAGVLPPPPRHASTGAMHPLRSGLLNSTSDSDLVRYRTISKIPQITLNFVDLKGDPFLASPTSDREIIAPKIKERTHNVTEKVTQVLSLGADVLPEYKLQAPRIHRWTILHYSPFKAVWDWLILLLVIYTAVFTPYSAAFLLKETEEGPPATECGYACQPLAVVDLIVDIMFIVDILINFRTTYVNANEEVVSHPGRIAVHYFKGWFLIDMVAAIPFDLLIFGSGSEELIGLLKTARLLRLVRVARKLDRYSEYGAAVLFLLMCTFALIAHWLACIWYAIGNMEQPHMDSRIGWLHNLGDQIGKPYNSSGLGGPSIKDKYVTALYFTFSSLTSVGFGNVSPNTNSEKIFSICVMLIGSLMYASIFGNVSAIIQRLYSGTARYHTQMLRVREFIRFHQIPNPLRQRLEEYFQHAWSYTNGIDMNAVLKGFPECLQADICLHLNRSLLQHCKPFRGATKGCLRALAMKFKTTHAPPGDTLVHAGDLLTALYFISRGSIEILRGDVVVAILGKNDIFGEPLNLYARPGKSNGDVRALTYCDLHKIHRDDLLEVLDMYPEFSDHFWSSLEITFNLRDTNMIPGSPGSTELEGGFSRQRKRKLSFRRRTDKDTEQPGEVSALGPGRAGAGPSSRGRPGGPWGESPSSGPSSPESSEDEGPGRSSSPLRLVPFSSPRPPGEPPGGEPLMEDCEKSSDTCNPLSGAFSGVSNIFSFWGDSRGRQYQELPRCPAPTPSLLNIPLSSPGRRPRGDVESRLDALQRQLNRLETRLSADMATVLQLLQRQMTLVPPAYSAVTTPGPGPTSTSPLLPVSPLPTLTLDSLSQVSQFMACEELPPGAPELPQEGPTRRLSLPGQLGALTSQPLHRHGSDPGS

[17] = Metabolic stability in human microsome assessed as clearance measured upto 60 mins by LC-MS/MS analysis; format: ADME; details: microsomes, 1 h
[18] = Metabolic stability in human Hepatocyte assessed as clearance measured upto 60 mins by LC-MS/MS analysis; format: ADME, cell-based; details: hepatocytes, 1 h
[19] = Unbound clearance in Gottingen minipig at 1 mg/kg, po or 1 mg/kg, iv measured upto 24 hrs by LC-MS/MS analysis; format: ADME, organism-based, Sus scrofa; details: pig, in vivo
[20] = Metabolic stability in Wistar rat Hepatocyte assessed as clearance measured upto 60 mins by LC-MS/MS analysis; format: ADME, cell-based; details: hepatocytes, 1 h
[21] = Metabolic stability in Wistar rat liver Microsome assessed as clearance measured upto 60 mins by LC-MS/MS analysis; format: ADME; details: microsomes, 1 h
[22] = Half life in Gottingen minipig at 1 mg/kg, iv measured upto 24 hrs by LC-MS/MS analysis; format: ADME, organism-based, Sus scrofa; details: pig, in vivo
[23] = Oral bioavailability in Gottingen minipig at 1 mg/kg measured upto 24 hrs by LC-MS/MS analysis; format: ADME, organism-based, Sus scrofa; details: pig, in vivo
[24] = Volume of distribution at steady state in Gottingen minipig at 1 mg/kg, po or 1 mg/kg, iv measured upto 24 hrs by LC-MS/MS analysis; format: ADME, organism-based, Sus scrofa; details: pig, in vivo
[25] = target: T1, Voltage-gated inwardly rectifying potassium channel KCNH2; assay: Inhibition of hERG by patch clamp assay; format: toxicity
[26] = Kinetic solubility of compound; format: physicochemical; details: read-out: Kinetic_solubility
[27] = target: Integrin alpha-V/beta-1 (Homo sapiens, UniProt P05556+P06756); assay: Binding affinity to Integrin alphaVbeta1 (unknown origin); format: protein-complex assay
[28] = target: Integrin alpha-V/beta-3 (Homo sapiens, UniProt P05106+P06756); assay: Binding affinity to Integrin alphaVbeta3 (unknown origin); format: protein-complex assay
[29] = target: Integrin alpha-V/beta-8 (Homo sapiens, UniProt P06756+P26012); assay: Binding affinity to Integrin alphaVbeta8 (unknown origin); format: protein-complex assay
Chain of Integrin alpha-V/beta-8 (P06756 31-889 limits assumed): as the sequence (P06756 31-889 limits assumed) above
Chain of Integrin alpha-V/beta-8 (P06756 891-1048 limits assumed): as the sequence (P06756 891-1048 limits assumed) above
Chain of Integrin alpha-V/beta-8 (P26012 43-769 limits assumed): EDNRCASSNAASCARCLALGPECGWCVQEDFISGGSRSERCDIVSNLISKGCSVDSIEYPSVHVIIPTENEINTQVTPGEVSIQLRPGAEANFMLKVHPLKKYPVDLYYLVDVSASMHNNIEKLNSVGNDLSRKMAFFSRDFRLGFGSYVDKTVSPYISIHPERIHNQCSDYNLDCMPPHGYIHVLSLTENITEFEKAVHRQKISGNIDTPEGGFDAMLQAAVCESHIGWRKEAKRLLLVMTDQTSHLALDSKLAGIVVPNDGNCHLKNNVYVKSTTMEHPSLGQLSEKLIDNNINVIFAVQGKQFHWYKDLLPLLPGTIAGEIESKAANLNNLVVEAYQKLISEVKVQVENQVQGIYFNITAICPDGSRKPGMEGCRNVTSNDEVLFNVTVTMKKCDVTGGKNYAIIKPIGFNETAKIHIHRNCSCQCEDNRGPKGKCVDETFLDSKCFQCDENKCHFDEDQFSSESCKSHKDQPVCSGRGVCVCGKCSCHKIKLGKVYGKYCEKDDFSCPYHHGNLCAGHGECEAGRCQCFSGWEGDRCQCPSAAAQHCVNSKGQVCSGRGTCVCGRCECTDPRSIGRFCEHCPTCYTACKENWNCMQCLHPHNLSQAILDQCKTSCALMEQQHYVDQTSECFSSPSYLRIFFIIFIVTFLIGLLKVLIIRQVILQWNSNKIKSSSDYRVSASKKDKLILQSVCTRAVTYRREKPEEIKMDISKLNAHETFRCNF

[30] = target: Integrin alpha-V/beta-5 (Homo sapiens, UniProt P06756+P18084); assay: Binding affinity to Integrin alphaVbeta5 (unknown origin); format: protein-complex assay
Chain of Integrin alpha-V/beta-5 (P06756 31-889 limits assumed): as the sequence (P06756 31-889 limits assumed) above
Chain of Integrin alpha-V/beta-5 (P06756 891-1048 limits assumed): as the sequence (P06756 891-1048 limits assumed) above
Chain of Integrin alpha-V/beta-5 (P18084 24-799 limits assumed): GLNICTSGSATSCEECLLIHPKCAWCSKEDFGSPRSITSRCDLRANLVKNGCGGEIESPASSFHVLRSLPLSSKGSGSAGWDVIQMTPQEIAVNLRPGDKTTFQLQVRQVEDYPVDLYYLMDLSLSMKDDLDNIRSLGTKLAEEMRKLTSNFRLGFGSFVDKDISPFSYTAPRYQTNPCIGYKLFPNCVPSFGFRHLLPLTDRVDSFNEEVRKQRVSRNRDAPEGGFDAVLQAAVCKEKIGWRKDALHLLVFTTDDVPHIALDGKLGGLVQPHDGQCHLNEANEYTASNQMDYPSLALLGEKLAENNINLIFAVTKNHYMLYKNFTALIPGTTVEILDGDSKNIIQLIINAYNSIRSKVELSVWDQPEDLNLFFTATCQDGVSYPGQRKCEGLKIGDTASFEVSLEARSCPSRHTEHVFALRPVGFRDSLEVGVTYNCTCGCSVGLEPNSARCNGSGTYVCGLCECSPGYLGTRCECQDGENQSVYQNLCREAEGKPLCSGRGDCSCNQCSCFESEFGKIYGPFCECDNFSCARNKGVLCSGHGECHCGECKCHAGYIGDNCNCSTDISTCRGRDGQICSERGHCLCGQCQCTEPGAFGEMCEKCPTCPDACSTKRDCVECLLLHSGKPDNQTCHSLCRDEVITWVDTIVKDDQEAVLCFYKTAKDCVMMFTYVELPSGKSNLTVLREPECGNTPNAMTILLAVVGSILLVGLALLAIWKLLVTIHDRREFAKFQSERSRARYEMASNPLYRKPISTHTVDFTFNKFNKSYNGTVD

[31] = Oral bioavailability in male Wistar Han rat at 2 mg/kg measured upto 24 hrs by LC-MS/MS analysis; format: ADME, organism-based; details: in vivo
[32] = system: Mus musculus; assay: Antifibrotic activity against bleomycin-induced mouse model of pulmonary fibrosis at 2 to 15 mg/kg, po; format: functional, organism-based; details: dose 2-15 mg/kg
[33] = Volume of distribution at steady state in male Wistar Han rat at 2 mg/kg, po measured upto 24 hrs by LC-MS/MS analysis; format: ADME, organism-based; details: in vivo
[34] = system: Mus musculus; assay: Antifibrotic activity against bleomycin-induced mouse model of pulmonary fibrosis at 2 to 10 mg/kg, po; format: functional, organism-based; details: dose 2-10 mg/kg

| Compound | half-life [2] | CL free [3] | bioavailability [5] | Vdss [7] | Papp A→B at 1 h [9] | logD [10] | IC50 [11] | Papp A→B [12] | CLH [17] | solubility kinetic [26] | further results |
| --- | --- | --- | --- | --- | --- | --- | --- | --- | --- | --- | --- |
| Cc1cc(C)n(-c2cccc([C@H](CC(=O)O)CN3CC[C@@H](CCc4ccc5c(n4)NCCC5)C3)c2)n1.Cl [GSK-3008348] | 0.8 h | 189 mL/min/kg | < 2% | 2.1 L/kg |  |  |  |  |  |  | half-life [1]: 3.6 h; Vdss [4]: 3.6 L/kg; CL free [6]: 124 mL/min/kg; bioavailability [8]: 30% |
| O=C(O)C[C@H](CN1CC(CCc2ccc3c(n2)NCCC3)CC(F)(F)C1)c1cccc(N2CCOCC2)c1 (stereo in doubt; 3a) |  |  |  |  | 36 ×10⁻⁶ cm/s | 3.46 | 631 nM |  |  |  |  |
| O=C(O)C[C@H](CN1CC[C@@H](CCc2ccc3c(n2)NCCC3)C1)c1cccc(N2CCOCC2)c1 |  |  |  |  | 2.7 ×10⁻⁶ cm/s | 2.27 |  |  |  |  |  |
| COCCOc1cccc([C@H](CC(=O)O)CN2CC[C@](F)(CCc3ccc4c(n3)NCCC4)C2)c1 |  |  |  |  |  | 2.89 |  | 1.9 ×10⁻⁶ cm/s |  |  | AUC [13]: 101 ng·h/mL |
| O=C(O)C[C@H](CN1CC(CCc2ccc3c(n2)NCCC3)CC(F)(F)C1)c1cccc(N2CCOCC2)c1 (stereo in doubt; 3b) |  |  |  |  |  |  | 79.4 nM |  |  |  | logD [14]: 4.33; permeability [15]: 56 ×10⁻⁶ cm/s |
| O=C(O)C[C@H](CN1CC[C@@](F)(CCc2ccc3c(n2)NCCC3)C1)c1cccc(N2CCOCC2)c1 | 1.9 h | 206 mL/min/kg | 77% | 4.1 L/kg | 21.8 ×10⁻⁶ cm/s | 2.68 |  | 8.7 ×10⁻⁶ cm/s | < 0.46 mL/min/g | 258 µg/mL (≈ 520 µM) | IC50 [16]: > 10000 nM; half-life [1]: 6.1 h; CLH [18]: < 0.62 mL/min/g; CL free [19]: 58 mL/min/kg; CLH [20]: < 1.04 mL/min/g; CLH [21]: < 0.49 mL/min/g; half-life [22]: 3 h; bioavailability [23]: 34%; Vdss [4]: 2.5 L/kg; CL free [6]: 18 mL/min/kg; Vdss [24]: 2.5 L/kg; IC50 [25]: > 10000 nM; bioavailability [8]: 74% |
| O=C(O)C[C@H](CN1CCC(F)(F)C(CCc2ccc3c(n2)NCCC3)C1)c1cccc(N2CCOCC2)c1 (stereo in doubt; 2a) |  |  |  |  | 37 ×10⁻⁶ cm/s | 4.02 | 2000 nM |  |  |  |  |
| O=C(O)C[C@H](CN1CC[C@@](F)(CCc2ccc3c(n2)NCCC3)C1)c1cccc(O[C@@H]2CCOC2)c1 | 3.1 h | 88 mL/min/kg | 90% | 3.3 L/kg | 20.5 ×10⁻⁶ cm/s | 2.76 |  | 7.8 ×10⁻⁶ cm/s | < 0.4 mL/min/g | 232 µg/mL (≈ 466 µM) | CLH [18]: < 0.21 mL/min/g; CL free [19]: 34 mL/min/kg; CLH [20]: 1.4 mL/min/g; CLH [21]: < 0.46 mL/min/g; IC50 [27]: 158 nM; half-life [22]: 1.7 h; bioavailability [23]: 66%; Vdss [24]: 1.5 L/kg; IC50 [28]: 63.1 nM |
| O=C(O)C[C@H](CN1CCCC(F)(CCc2ccc3c(n2)NCCC3)C1)c1cccc(N2CCOCC2)c1 (stereo in doubt; 4b) |  |  |  |  |  |  | 200 nM |  |  |  | permeability [15]: 38 ×10⁻⁶ cm/s |
| O=C(O)C[C@H](CN1CCC(F)(F)C(CCc2ccc3c(n2)NCCC3)C1)c1cccc(N2CCOCC2)c1 (stereo in doubt; 2b) |  |  |  |  |  |  | 501 nM |  |  |  | logD [14]: 4.62; permeability [15]: 56 ×10⁻⁶ cm/s |
| O=C(O)C[C@H](CN1CC[C@@](F)(CCc2ccc3c(n2)NCCC3)C1)c1cccc(OC2CCOCC2)c1 | 3.5 h | 182 mL/min/kg | 50% | 4.9 L/kg | 17.2 ×10⁻⁶ cm/s | 3.18 |  | 12.1 ×10⁻⁶ cm/s | < 0.4 mL/min/g | 209 µg/mL (≈ 408 µM) | IC50 [29]: 12.6 nM; CLH [18]: < 0.21 mL/min/g; CLH [20]: 1.6 mL/min/g; CLH [21]: < 0.46 mL/min/g; IC50 [30]: 31.6 nM |
| O=C(O)C[C@H](CN1CC[C@](F)(CCc2ccc3c(n2)NCCC3)C1)c1cccc(N2CCOCC2)c1 |  |  |  |  | 9.3 ×10⁻⁶ cm/s | 2.66 |  |  |  |  | IC50 [16]: > 10000 nM; IC50 [25]: > 10000 nM |
| Cc1cc(C)n(-c2cccc([C@H](CC(=O)O)CN3CC[C@@](F)(CCc4ccc5c(n4)NCCC5)C3)c2)n1 |  |  |  |  | 33 ×10⁻⁶ cm/s | 3.3 | 10 nM | 17.7 ×10⁻⁶ cm/s | < 0.53 mL/min/g | 262 µg/mL (≈ 518 µM) | IC50 [29]: 20 nM; CLH [18]: < 0.86 mL/min/g; CLH [20]: 13.75 mL/min/g; CLH [21]: 0.91 mL/min/g; IC50 [30]: 200 nM; IC50 [28]: 316 nM |
| O=C(O)C[C@H](CN1CC[C@@](F)(CCc2ccc3c(n2)NCCC3)C1)c1cccc(O[C@H]2CCOC2)c1 | 2.8 h | 58 mL/min/kg | 61% | 1.9 L/kg | 26 ×10⁻⁶ cm/s | 2.84 |  | 7.6 ×10⁻⁶ cm/s | < 0.4 mL/min/g | 194 µg/mL (≈ 390 µM) | CL free [19]: 26 mL/min/kg; half-life [22]: 3.4 h; bioavailability [23]: 63%; Vdss [24]: 1.4 L/kg |
| O=C(O)C[C@H](CN1CCCC(F)(CCc2ccc3c(n2)NCCC3)C1)c1cccc(N2CCOCC2)c1 (stereo in doubt; 4a) |  |  |  |  | 21.6 ×10⁻⁶ cm/s | 2.68 | 50.1 nM |  |  |  |  |
| COCCOc1cccc([C@H](CC(=O)O)CN2CC[C@@](F)(CCc3ccc4c(n3)NCCC4)C2)c1 |  |  |  |  | 14.6 ×10⁻⁶ cm/s | 2.93 |  | 8.7 ×10⁻⁶ cm/s |  | 127 µg/mL (≈ 262 µM) | bioavailability [31]: 93%; AUC [13]: 779 ng·h/mL; Activity [32]: Active; Vdss [33]: 3.6 L/kg; Activity [34]: Active; bioavailability [23]: 84%; Vdss [4]: 1.4 L/kg; Vdss [24]: 0.9 L/kg; bioavailability [8]: 104% |
